Test results reported in patent US7786141B2 (Vertex Pharmaceuticals Incorporated, priority 2004, dated 2010).

Columns and labels:
M4 muscarinic receptor = molecular target: T1, M4 muscarinic receptor (Homo sapiens, UniProt P08173); experiment: Functional mobilization of intracellular calcium (FLIPR) in M4-CHO cells; format: cell-based; conditions: for Emax: 100% efficacy is the maximum response obtained with the Carbachol control; for M4 Activity: M4 receptor, calcium mobilization (FLIPR); for EC50: CHO cells expressing M4, calcium mobilization
T1 construct: expressed in transfected cells; host or cells: CHO (M4-CHO)
T1 sequence (P08173 1-479): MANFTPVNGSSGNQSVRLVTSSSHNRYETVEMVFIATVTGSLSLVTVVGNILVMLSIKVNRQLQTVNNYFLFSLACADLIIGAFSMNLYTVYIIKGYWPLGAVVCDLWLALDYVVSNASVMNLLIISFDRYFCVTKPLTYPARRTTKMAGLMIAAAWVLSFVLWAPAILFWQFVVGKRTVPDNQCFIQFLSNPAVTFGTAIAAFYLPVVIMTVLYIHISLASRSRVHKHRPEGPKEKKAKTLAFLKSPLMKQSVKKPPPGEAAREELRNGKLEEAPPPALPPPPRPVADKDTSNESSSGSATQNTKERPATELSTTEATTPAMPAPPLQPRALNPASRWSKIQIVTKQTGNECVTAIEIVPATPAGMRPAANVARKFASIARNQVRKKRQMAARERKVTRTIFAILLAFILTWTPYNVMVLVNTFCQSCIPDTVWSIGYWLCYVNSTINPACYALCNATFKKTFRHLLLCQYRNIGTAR
Outline: (§1)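 Steps: seed M1- or M4-CHO cells 18-24 hrs ahead; load calcium dye with 1 mM probenecid; add test compound (0.5% DMSO final), either alone for agonism or 15 min before EC80 carbachol for inhibition; record FLIPR fluorescence for 60 sec.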

M1 muscarinic receptor = molecular target: T2, M1 muscarinic receptor (Homo sapiens, UniProt P11229); experiment: Functional mobilization of intracellular calcium (FLIPR) in M1-CHO cells; format: cell-based; conditions: for Emax: 100% efficacy is the maximum response obtained with the Carbachol control; for M1 Activity: M1 receptor, calcium mobilization (FLIPR); for EC50: CHO cells expressing M1, calcium mobilization
T2 construct: expressed in transfected cells; host or cells: CHO (M1-CHO)
T2 sequence (P11229 1-460): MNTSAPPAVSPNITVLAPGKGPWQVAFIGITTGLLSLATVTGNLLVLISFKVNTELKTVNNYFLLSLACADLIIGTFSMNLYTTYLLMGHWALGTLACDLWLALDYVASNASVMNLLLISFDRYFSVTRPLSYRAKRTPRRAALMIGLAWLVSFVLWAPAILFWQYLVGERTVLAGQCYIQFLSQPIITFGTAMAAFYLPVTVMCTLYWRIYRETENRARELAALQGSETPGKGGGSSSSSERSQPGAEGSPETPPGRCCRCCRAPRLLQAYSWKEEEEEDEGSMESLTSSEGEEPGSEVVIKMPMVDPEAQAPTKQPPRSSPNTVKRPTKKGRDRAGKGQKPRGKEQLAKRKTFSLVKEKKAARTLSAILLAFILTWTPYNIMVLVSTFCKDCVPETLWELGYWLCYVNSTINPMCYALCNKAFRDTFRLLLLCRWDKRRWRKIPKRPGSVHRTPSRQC
Outline: as §1

| Compound | Emax (M4 muscarinic receptor; Table 4) [%] | M4 Activity (M4 muscarinic receptor; Table 4) | Emax (M1 muscarinic receptor; Table 4) [%] | M1 Activity (M1 muscarinic receptor; Table 4) | Emax (M4 muscarinic receptor; Table 5) [%] | EC50 (M4 muscarinic receptor; Table 5) [nM] | Emax (M1 muscarinic receptor; Table 5) [%] | EC50 (M1 muscarinic receptor; Table 5) [nM] |
| --- | --- | --- | --- | --- | --- | --- | --- | --- |
| CCC(C)C(=O)N1CCC(N2CCC3(CC2)CN(C(C)=O)c2ccccc23)CC1 (centres unmarked) [compound 1000] | 25 to 100 | x (activity was measured to be greater than 5.0 μM) | 25 to 100 | x (activity was measured to be greater than 5.0 μM) |  |  |  |  |
| COc1cc2c(cc1OC)C1(CCN([C@H]3CC4CC[C@@H]3C4)CC1)C[C@@H]2NC(C)=O [compound 1002] | < 25 | x (activity was measured to be greater than 5.0 μM) | < 25 | x (activity was measured to be greater than 5.0 μM) |  |  |  |  |
| CCOC(=O)N1CCC(CN2CCCC3(CC2)CN(C(C)=O)c2ccc(F)cc23)CC1 (centres unmarked) [compound 1003] | 25 to 100 | xxx (activity was measured to be less than 2.0 μM) | 25 to 100 | xxx (activity was measured to be less than 2.0 μM) |  |  |  |  |
| CCOC(=O)N1CCC(N2CCC3(CC2)CN(C(=O)[C@@H](O)CC)c2ccc(F)cc23)CC1 [compound 1004] | 25 to 100 | xxx (activity was measured to be less than 2.0 μM) | 25 to 100 | xxx (activity was measured to be less than 2.0 μM) |  |  |  |  |
| CN(C)C(=O)N[C@H]1CC2(CCN([C@@H]3CC4CC[C@@H]3C4)CC2)c2ccccc21 [compound 1005] | 25 to 100 | xxx (activity was measured to be less than 2.0 μM) | < 25 | x (activity was measured to be greater than 5.0 μM) |  |  |  |  |
| CN(C)C(=O)N1CC2(CCN(C3CCN(C(=O)[C@@H]4CCCO4)CC3)CC2)c2cc(F)ccc21 [compound 1006] | < 25 | x (activity was measured to be greater than 5.0 μM) | 25 to 100 | x (activity was measured to be greater than 5.0 μM) |  |  |  |  |
| CC(=O)CN1CC2(CCN(C3CCCCCC3)CC2)c2cc(F)ccc21 [compound 1009] | 25 to 100 | xxx (activity was measured to be less than 2.0 μM) | 25 to 100 | xxx (activity was measured to be less than 2.0 μM) |  |  |  |  |
| CN(C)C(=O)NC1CCC2(CCN(CCC3CC4CCC3C4)CC2)c2ccccc21 (centres unmarked) [compound 1010] | < 25 | x (activity was measured to be greater than 5.0 μM) | < 25 | x (activity was measured to be greater than 5.0 μM) |  |  |  |  |
| COCCOC(=O)N1CCC(N2CCC3(CC2)CN(C(C)=O)c2ccc(F)cc23)C1 (centres unmarked) [compound 1012] | < 25 | x (activity was measured to be greater than 5.0 μM) | < 25 | x (activity was measured to be greater than 5.0 μM) |  |  |  |  |
| C#CCCOC(=O)N1CC[C@@H](CN2CCC3(CC2)CN(C(C)=O)c2ccccc23)C1 [compound 1013] | < 25 | x (activity was measured to be greater than 5.0 μM) | < 25 | x (activity was measured to be greater than 5.0 μM) |  |  |  |  |
| CCOC(=O)N1C2CCC1CC(N1CCC3(CC[C@H](N4CCCC4=O)c4ccccc43)CC1)C2 (some centres unmarked) [compound 1014] | 25 to 100 | xxx (activity was measured to be less than 2.0 μM) | 25 to 100 | xxx (activity was measured to be less than 2.0 μM) |  |  |  |  |
| CC(=O)N1CC2(CCN(C[C@@H]3CCN(C(=O)OCC(F)F)C3)CC2)c2ccccc21 [compound 1015] | < 25 | xxx (activity was measured to be less than 2.0 μM) | 25 to 100 | xx (activity was measured to be between 2.0 μM and 5.0 μM) |  |  |  |  |
| CCCC(=O)N[C@H]1CC2(CCN(C[C@@H]3C[C@H]4C=CC3C4)CC2)c2ccccc21 [compound 1016] | 25 to 100 | xxx (activity was measured to be less than 2.0 μM) | 25 to 100 | xxx (activity was measured to be less than 2.0 μM) |  |  |  |  |
| CCCC(=O)N[C@H]1CC2(CCN([C@@H]3CC4CC[C@@H]3C4)CC2)c2ccccc21 [compound 1017] | 25 to 100 | xxx (activity was measured to be less than 2.0 μM) | 25 to 100 | x (activity was measured to be greater than 5.0 μM) |  |  |  |  |
| CC(=O)N1CC2(CCN(C3CCN(c4nccs4)CC3)CC2)c2cc(F)ccc21 [compound 1019] |  |  |  |  | 25 to 100 | < 2000 | 25 to 100 | < 2000 |
| CC(=O)N1CC2(CCN(C3CCC4(CC3)CC(C)=NO4)CC2)c2cc(F)ccc21 (centres unmarked) [compound 1020] |  |  |  |  | < 25 | 2000 to 10000 | 25 to 100 | 2000 to 10000 |
| CN(C)C(=O)N1CC2(CCN(C3CCN(c4ccccc4F)CC3)CC2)c2cc(F)ccc21 [compound 1024] |  |  |  |  | < 25 | 2000 to 10000 | 25 to 100 | 2000 to 10000 |
| CN(C)C(=O)N1CC2(CCN(C3CCN(c4cccc(F)c4)CC3)CC2)c2cc(F)ccc21 [compound 1025] |  |  |  |  | 25 to 100 | < 2000 | 25 to 100 | 2000 to 10000 |
| CN(C)C(=O)N1CC2(CCN(C3CCN(c4ccc(F)cc4)CC3)CC2)c2cc(F)ccc21 [compound 1026] |  |  |  |  | < 25 | < 2000 | 25 to 100 | 2000 to 10000 |
| COc1ccccc1N1CCC(N2CCC3(CC2)CN(C(=O)N(C)C)c2ccc(F)cc23)CC1 [compound 1027] |  |  |  |  | 25 to 100 | 2000 to 10000 | 25 to 100 | 2000 to 10000 |
| COc1cccc(N2CCC(N3CCC4(CC3)CN(C(=O)N(C)C)c3ccc(F)cc34)CC2)c1 [compound 1028] |  |  |  |  | 25 to 100 | < 2000 | 25 to 100 | 2000 to 10000 |
| COc1ccc(N2CCC(N3CCC4(CC3)CN(C(=O)N(C)C)c3ccc(F)cc34)CC2)cc1 [compound 1029] |  |  |  |  | 25 to 100 | 2000 to 10000 | 25 to 100 | 2000 to 10000 |
| COc1ccc(F)cc1N1CCC(N2CCC3(CC2)CN(C(=O)N(C)C)c2ccc(F)cc23)CC1 [compound 1030] |  |  |  |  | 25 to 100 | 2000 to 10000 | 25 to 100 | 2000 to 10000 |
| CN(C)C(=O)N1CC2(CCN(C3CCN(c4cnccn4)CC3)CC2)c2cc(F)ccc21 [compound 1031] |  |  |  |  | 25 to 100 | < 2000 | 25 to 100 | < 2000 |
| CN(C)C(=O)N1CC2(CCN(C3CCN(c4ncccn4)CC3)CC2)c2cc(F)ccc21 [compound 1032] |  |  |  |  | 25 to 100 | < 2000 | 25 to 100 | 2000 to 10000 |
| CN(C)C(=O)N1CC2(CCN(C3CCN(c4cncnc4)CC3)CC2)c2cc(F)ccc21 [compound 1033] |  |  |  |  | 25 to 100 | < 2000 | 25 to 100 | 2000 to 10000 |
